The results in this text go back to ChEMBL document CHEMBL6109086, “Discovery and biological evaluation of hederagenin derivatives as non-substrate inhibitors of P-glycoprotein-mediated multidrug resistance” (Eur J Med Chem, 2025).

SMILES strings stand for the structures. The source made the active and inactive calls. The calls are words filed in the database; no cut-off is given here.

Data set [1] in a line: Sensitization of paclitaxel-induced cytotoxicity against human KBV cells assessed as fold change in paclitaxel IC50 at 5 uM incubated for 72 hrs by MTT assay relative to paclitaxel alone. Type of data set: functional. (Tetrazolium assays rely on reduction of a dye to a coloured formazan, in cell work by metabolically active cells.)
In data set [2] the test system is KBV. The data set can be described thus: Induction of apoptosis in human KBV cells in presence of paclitaxel incubated for 24 hrs by PI staining based flow cytometry analysis. The conditions noted are these: dose 2.5-10 µM. Type of data set: functional, cell-based.
Data set [3] addresses ATP-dependent translocase ABCB1 (Homo sapiens, UniProt P08183). The data set can be described thus: Induction of thermal stabilization of p-glycoprotein in human KBV cells at 50 uM pre-treated with cells for 24 hrs and measured after 2 hrs by CESTA. The conditions noted are these: 26 h. In kind it is cell-based.
For data set [4], the system named is KBV. The data set can be described thus: Induction of cell cycle arrest in human KBV cells assessed as accumulation of cells at G2/M phase at 10 uM in presence of paclitaxel incubated for 24 hrs by PI staining based flow cytometry analysis. Type of data set: functional. Background: Flow cytometry measures light scatter and fluorescence of single cells or particles in a stream.

Data set [5] in a line: Aqueous solubility of the compound in deionized water measured after 24 hrs by UV-vis spectrophotometric analysis. In kind it is physicochemical. To be noted: buffer.
Data set [6] can be described thus: Sensitization of vincristine -induced cytotoxicity against human KBV cells assessed as fold change in vincristine IC50 at 2.5 uM incubated for 72 hrs by MTT assay relative to vincristine alone. In kind it is functional.
The nature of data set [7]: Sensitization of paclitaxel-induced cytotoxicity against human KBV cells assessed as fold change in paclitaxel IC50 at 10 uM incubated for 72 hrs by MTT assay relative to paclitaxel alone. In kind it is functional.
A short description of data set [8]: Drug accumulation in human KB cells […] at 10 uM measured after 4 hrs by UPLC-MS analysis. In kind it is ADME, cell-based.
Data set [9] can be described thus: Cytotoxicity against human KBV cells assessed as paclitaxel induced cytotoxicity by measuring cell survival at 10 uM measured after 72 hrs by MTT assay relative to control. Type of data set: functional.
For data set [10], the system named is KBV. In words: Induction of cell cycle arrest in human KBV cells assessed as accumulation of cells at G2/M phase at 10 uM incubated for 24 hrs by PI staining based flow cytometry analysis. Type of data set: functional.
Data set [11] in a line: Sensitization of vincristine -induced cytotoxicity against human KBV cells assessed as fold change in vincristine IC50 at 5 uM incubated for 72 hrs by MTT assay relative to vincristine alone. In kind it is functional.
Data set [12] is described as follows: Sensitization of vincristine -induced cytotoxicity against human KBV cells assessed as fold change in vincristine IC50 at 10 uM incubated for 72 hrs by MTT assay relative to vincristine alone. Type of data set: functional.
A short description of data set [13]: Drug accumulation in human KBV cells expressing p-glycoprotein at 10 uM measured after 4 hrs by UPLC-MS analysis. In kind it is ADME, cell-based.
Data set [14] deals with KBV. The data set can be described thus: Induction of cell cycle arrest in human KBV cells assessed as accumulation of cells at G2/M phase in presence of paclitaxel incubated for 24 hrs by PI staining based flow cytometry analysis. In kind it is functional. The conditions noted are these: dose 2.5-10 µM.
The test system of data set [15] is KBV. The data set can be described thus: Anti-tumor activity against human KBV cells xenografted in male BALB/c nude mouse assessed as reduction in tumor volume at 10 mg/kg administered once daily for 18 days. In kind it is functional, organism-based. The conditions noted are these: time 18.0 day.
A short description of data set [16]: Reversal of multi-drug resistance in human KBV cells assessed as paclitaxel induced cytotoxicity by measuring cell survival at 10 uM measured after 72 hrs by MTT assay relative to control. In kind it is functional.
Data set [17] is described as follows: Sensitization of paclitaxel-induced cytotoxicity against human KBV cells assessed as fold change in paclitaxel IC50 at 2.5 uM incubated for 72 hrs by MTT assay relative to paclitaxel alone. Type of data set: functional.
Another data set relates to KBv200. The data set can be described thus: Effect on p-glycoprotein expression level in human KBv200 cells at 2.5 to 10 uM measured after 4 hrs by Western blot analysis. Type of data set: functional, cell-based. The conditions noted are these: dose 2.5-10 µM. For orientation: In western blotting, separated proteins are transferred to a membrane and probed.
The test system of data set [18] is KBV. The data set can be described thus: Induction of Rh123 accumulation in human KBV cells at 10 uM incubated for 150 mins by flow cytometry analysis. Type of data set: functional, cell-based.
Data set [19] in a line: Cytotoxicity against human KBV cells incubated for 72 hrs by MTT assay. In kind it is functional, cell-based.
In data set [20] the test system is KBV. The data set can be described thus: Anti-tumor activity against human KBV cells xenografted in male BALB/c nude mouse assessed as reduction in tumor volume at 30 mg/kg administered every days for 18 days. In kind it is functional, organism-based. The conditions noted are these: time 18.0 day.

ATP-dependent translocase ABCB1, sequence (P08183 whole entry): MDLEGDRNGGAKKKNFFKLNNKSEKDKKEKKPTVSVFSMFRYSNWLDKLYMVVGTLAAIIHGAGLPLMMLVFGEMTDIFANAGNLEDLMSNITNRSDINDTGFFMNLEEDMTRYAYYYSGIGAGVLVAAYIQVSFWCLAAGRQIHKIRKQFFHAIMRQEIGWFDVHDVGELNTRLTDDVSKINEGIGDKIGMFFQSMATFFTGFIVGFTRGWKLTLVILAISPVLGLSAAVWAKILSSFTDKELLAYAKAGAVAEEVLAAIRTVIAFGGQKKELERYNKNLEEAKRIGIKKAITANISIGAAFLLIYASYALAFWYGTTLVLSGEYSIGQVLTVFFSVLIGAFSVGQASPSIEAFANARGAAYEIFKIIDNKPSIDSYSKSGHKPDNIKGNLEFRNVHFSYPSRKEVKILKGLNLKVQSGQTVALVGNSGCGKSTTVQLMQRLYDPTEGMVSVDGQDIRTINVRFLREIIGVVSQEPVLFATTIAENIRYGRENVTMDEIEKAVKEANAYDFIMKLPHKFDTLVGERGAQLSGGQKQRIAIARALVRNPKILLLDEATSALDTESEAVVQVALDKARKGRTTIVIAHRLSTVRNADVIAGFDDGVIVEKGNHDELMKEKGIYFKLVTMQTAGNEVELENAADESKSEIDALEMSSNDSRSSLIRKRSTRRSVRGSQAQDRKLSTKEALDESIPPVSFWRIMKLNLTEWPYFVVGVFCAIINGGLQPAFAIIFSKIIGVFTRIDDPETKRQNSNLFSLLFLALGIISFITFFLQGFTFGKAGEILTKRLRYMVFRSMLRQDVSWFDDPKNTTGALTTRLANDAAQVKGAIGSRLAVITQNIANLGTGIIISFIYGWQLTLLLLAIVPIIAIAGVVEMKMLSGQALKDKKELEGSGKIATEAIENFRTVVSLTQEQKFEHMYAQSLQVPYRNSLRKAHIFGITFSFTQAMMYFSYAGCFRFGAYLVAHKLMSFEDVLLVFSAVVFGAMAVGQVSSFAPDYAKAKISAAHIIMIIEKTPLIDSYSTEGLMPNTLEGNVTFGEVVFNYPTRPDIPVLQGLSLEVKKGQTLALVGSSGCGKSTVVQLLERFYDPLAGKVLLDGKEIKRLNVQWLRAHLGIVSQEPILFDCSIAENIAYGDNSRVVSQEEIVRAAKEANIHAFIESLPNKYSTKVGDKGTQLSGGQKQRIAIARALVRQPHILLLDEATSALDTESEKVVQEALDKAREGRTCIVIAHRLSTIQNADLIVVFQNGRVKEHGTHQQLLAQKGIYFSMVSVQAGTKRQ

In the case of `CC1(C)CC[C@]2(C(=O)NCCCC(=O)OCCOCCOCCOCCOCCOCCO)CC[C@]3(C)C(=CC[C@@H]4[C@@]5(C)Cc6nccnc6[C@@](C)(CO)[C@@H]5CC[C@]43C)[C@@H]2C1`, the “fold change (FC)” value is reported as 6.12 in [1]; 2.43 in data set [6]; 103.51 in [7]; 6.09 in [11]; 14.41 in data set [12]; 2.72 in data set [17]. The Activity entry in the data set on KBV [2] was “Dose-dependent-effect”; in data set [3], “Active”; in [9], 86%; in the data set on KBV [14] it was “Dose-dependent-effect”; in data set [16], 17.01%. The outcome in the data set on KBV [4] and in the data set on KBV [18] was Active. Also, the solubility entry in data set [5] was “soluble”. Further, the Drug uptake result in data set [8] and in data set [13] was “Active” each time. The result with KBV [10], with KBV [15] and with KBv200 was inactive.
For `O[C@@H](COc1cccc2ncccc12)CN1CCN([C@@H]2c3ccccc3[C@@H]3[C@H](c4ccccc42)C3(F)F)CC1` [ZOSUQUIDAR], the “fold change (FC)” value was determined as 133.98 in data set [1]; 9.01 in [6]; 449.19 in [7]; 33.85 in data set [11]; 721.86 in [12]; 45.38 in data set [17].
Take `C[C@H](N)C(=O)N[C@@H](C)C(=O)NCCNC(=O)[C@]12CCC(C)(C)C[C@H]1C1=CC[C@@H]3[C@@]4(C)Cc5nccnc5[C@@](C)(CO)[C@@H]4CC[C@@]3(C)[C@]1(C)CC2`: the Activity is listed as 92.74% in [9] and 28.53% in data set [16].
On to `CC1(C)CC[C@]2(C(=O)OCC(=O)OCc3cnccn3)CC[C@]3(C)C(=CC[C@@H]4[C@@]5(C)Cc6nccnc6[C@@](C)(CO)[C@@H]5CC[C@]43C)[C@@H]2C1`, for which the figures for the Activity in data set [9] and in data set [16] were 121.45% and 53.78%, respectively.
`CC1(C)CC[C@]2(C(=O)OCC(=O)NCc3ccccn3)CC[C@]3(C)C(=CC[C@@H]4[C@@]5(C)Cc6nccnc6[C@@](C)(CO)[C@@H]5CC[C@]43C)[C@@H]2C1`: the figures for the Activity in data set [9] and in data set [16] were 82.98% and 33.22%, respectively.
`COc1cc2c(cc1OC)CN(CCc1ccc(NC(=O)c3cc(OC)c(OC)cc3NC(=O)c3cnc4ccccc4c3)cc1)CC2`: the “fold change (FC)” value in data set [1] is on record as 824.4; in data set [6] it was 16.78; in [7], 1523.35; in data set [11] it was 30.99; in data set [12] it was 744.78; in data set [17], 391.47.
As to `CC1(C)CC[C@]2(C(=O)OCC(=O)OCc3ccncc3)CC[C@]3(C)C(=CC[C@@H]4[C@@]5(C)Cc6nccnc6[C@@](C)(CO)[C@@H]5CC[C@]43C)[C@@H]2C1`, the Activity in [9] came out at 109.15%; in data set [16] it was 46.31%.
Broadly, the IC50 is the midpoint of a concentration-inhibition curve. High values mean weaker potency in that assay, low ones greater potency in that assay. In turn, `CC[C@]1(O)C[C@H]2CN(CCc3c([nH]c4ccccc34)[C@@](C(=O)OC)(c3cc4c(cc3OC)N(C=O)[C@H]3[C@@](O)(C(=O)OC)[C@H](OC(C)=O)[C@]5(CC)C=CCN6CC[C@]43[C@@H]65)C2)C1` [VINCRISTINE] returned a half-inhibitory concentration (IC50) in data set [19] of 0.469 µM.
In the case of `CC(=O)O[C@H]1C(=O)[C@@]2(C)[C@H]([C@H](OC(=O)c3ccccc3)[C@]3(O)C[C@H](OC(=O)[C@H](O)[C@@H](NC(=O)c4ccccc4)c4ccccc4)C(C)=C1C3(C)C)[C@]1(OC(C)=O)CO[C@@H]1C[C@@H]2O` [PACLITAXEL], the result in the data set with KBV [20] was inactive. In data set [19], this compound displayed a 50% inhibitory concentration (IC50) of 0.701 µM. Moreover, the Activity in data set [9] was 106%.
Consider `COC(=O)[C@H](CCSC)NC(=O)COC(=O)[C@]12CCC(C)(C)C[C@H]1C1=CC[C@@H]3[C@@]4(C)Cc5nccnc5[C@@](C)(CO)[C@@H]4CC[C@@]3(C)[C@]1(C)CC2`, for which the Activity in data set [9] is 79.95%; in [16], 37.17%.
The corresponding values for `CC1(C)CC[C@]2(C(=O)NCC(=O)OCCOCCO)CC[C@]3(C)C(=CC[C@@H]4[C@@]5(C)Cc6nccnc6[C@@](C)(CO)[C@@H]5CC[C@]43C)[C@@H]2C1` are 94.99% and 84.84%.
Consider `CC1(C)CC[C@]2(C(=O)OCc3ccccc3)CC[C@]3(C)C(=CC[C@@H]4[C@@]5(C)Cc6nccnc6[C@@](C)(CO)[C@@H]5CC[C@]43C)[C@@H]2C1`, for which the solubility result in data set [5] is listed as “soluble”. The Activity in data set [16] came to 18.17%.
Consider `CC(C)[C@H](N)C(=O)N[C@H](C(=O)NCCNC(=O)[C@]12CCC(C)(C)C[C@H]1C1=CC[C@@H]3[C@@]4(C)Cc5nccnc5[C@@](C)(CO)[C@@H]4CC[C@@]3(C)[C@]1(C)CC2)C(C)C`, for which the Activity was 87.47% in [9] and 89.43% in data set [16].
On to `CC1(C)CC[C@]2(C(=O)OCC(=O)NCc3cnccn3)CC[C@]3(C)C(=CC[C@@H]4[C@@]5(C)Cc6nccnc6[C@@](C)(CO)[C@@H]5CC[C@]43C)[C@@H]2C1`, for which the Activity in [9] was determined as 97.94%; in [16], 40.44%.
For `CC1(C)CC[C@]2(C(=O)OCC(=O)OCc3nccs3)CC[C@]3(C)C(=CC[C@@H]4[C@@]5(C)Cc6nccnc6[C@@](C)(CO)[C@@H]5CC[C@]43C)[C@@H]2C1`, the Activity turned out to be 105.92% in data set [9] and 43.84% in [16].
The corresponding values for `CC(C)[C@H](N)C(=O)NCC(=O)NCCNC(=O)[C@]12CCC(C)(C)C[C@H]1C1=CC[C@@H]3[C@@]4(C)Cc5nccnc5[C@@](C)(CO)[C@@H]4CC[C@@]3(C)[C@]1(C)CC2` are 97.4% and 27.74%.
Consider `CC(C)C[C@H](N)C(=O)NCC(=O)NCCNC(=O)[C@]12CCC(C)(C)C[C@H]1C1=CC[C@@H]3[C@@]4(C)Cc5nccnc5[C@@](C)(CO)[C@@H]4CC[C@@]3(C)[C@]1(C)CC2`, for which the Activity in data set [9] is 98.91%; in data set [16], 96.68%.
The matching figures for `CC1(C)CC[C@]2(C(=O)NCC(=O)OCCOCCOCCO)CC[C@]3(C)C(=CC[C@@H]4[C@@]5(C)Cc6nccnc6[C@@](C)(CO)[C@@H]5CC[C@]43C)[C@@H]2C1`: 86.82% and 67.88%.
As for `CC1(C)CC[C@]2(C(=O)NCC(=O)OCCOCCOCCOCCO)CC[C@]3(C)C(=CC[C@@H]4[C@@]5(C)Cc6nccnc6[C@@](C)(CO)[C@@H]5CC[C@]43C)[C@@H]2C1`, the Activity in data set [9] turned out to be 90.96%; in data set [16], 83.46%.
For the compound `CC1(C)CC[C@]2(C(=O)OCC(=O)NCc3ncccn3)CC[C@]3(C)C(=CC[C@@H]4[C@@]5(C)Cc6nccnc6[C@@](C)(CO)[C@@H]5CC[C@]43C)[C@@H]2C1`, the values for the Activity in data set [9] and in data set [16] were 90.35% and 39.38%, respectively.
The corresponding values for `COC(=O)CC[C@H](NC(=O)COC(=O)[C@]12CCC(C)(C)C[C@H]1C1=CC[C@@H]3[C@@]4(C)Cc5nccnc5[C@@](C)(CO)[C@@H]4CC[C@@]3(C)[C@]1(C)CC2)C(=O)OC` are 92.53% and 40.07%.
